# Test results as given in patent US20250325534A1, “MICROBIOCIDAL TETRAHYDROISOQUINOLINE DERIVATIVES” (SYNGENTA CROP PROTECTION AG, priority 2021, published 2025).
# System: Mycosphaerella graminicola
# Test: Mycosphaerella graminicola (Septoria tritici) / liquid culture (Septoria blotch)
# Format: cell-based
# Conditions: Zymoseptoria tritici, 96 h, photometrically 4-5 days after application, read-out: control of Mycosphaerella graminicola
# Description: Example B19: Mycosphaerella graminicola (Septoria tritici)/Liquid Culture (Septoria Blotch) Conidia of the fungus from cryogenic storage are directly mixed into a nutrient broth (potato dextrose broth). After placing a DMSO solution of test compound into a microtiter plate (96-well format), the nutrient broth containing the fungal spores is added. The test plates are incubated at 24° C. and the inhibition of growth is determined photometrically 4-5 days after application.
row,SMILES,inhibition of growth at 20 ppm
1,"COc1ccc2c(c1)[C@@H](c1cnn(C)c1)CN(C(=O)c1cc(-c3ccc(F)cc3F)on1)[C@@H]2C (racemic) [Compound P-217, [5-(2,4-difluorophenyl)isoxazol-3-yl]-[rac-(1R,4S)-6-methoxy-1-methyl-4-(1-methylpyrazol-4-yl)-3,4-dihydro-1H-isoquinolin-2-yl]methanone]",≥ 80%
2,"Cn1cc(C2CN(C(=O)c3cc(C4(C)CC4)on3)Cc3ccccc32)cn1 (centres unmarked) [Compound P-184, [5-(1-methylcyclopropyl)isoxazol-3-yl]-[4-(1-methylpyrazol-4-yl)-3,4-dihydro-1H-isoquinolin-2-yl]methanone]",≥ 80%
3,"Cn1cc(C2CN(C(=O)c3cc(C4CC4)on3)Cc3ccccc32)cn1 (centres unmarked) [Compound P-202, (5-cyclopropylisoxazol-3-yl)-[4-(1-methylpyrazol-4-yl)-3,4-dihydro-1H-isoquinolin-2-yl]methanone]",≥ 80%
4,"COC(=O)c1ccc2c(c1)C(c1cnn(C)c1)CN(C(=O)c1cc(-c3ccc(F)cc3F)on1)C2 (centres unmarked) [Compound P-61, methyl 2-[5-(2,4-difluorophenyl)isoxazole-3-carbonyl]-4-(1-methylpyrazol-4-yl)-3,4-dihydro-1H-isoquinoline-6-carboxylate]",≥ 80%
5,"Cc1c([C@H]2CN(C(=O)c3cc(-c4ccc(F)cc4F)on3)[C@@H](C)c3ccccc32)cnn1C (racemic) [Compound P-242, [5-(2,4-difluorophenyl)isoxazol-3-yl]-[rac-(1S,4S)-4-(1,5-dimethylpyrazol-4-yl)-1-methyl-3,4-dihydro-1H-isoquinolin-2-yl]methanone]",≥ 80%
6,"Cn1cc(C2CN(C(=O)c3cc(-c4ccc(F)cc4F)on3)Cc3cc(-c4ccccc4)ccc32)cn1 (centres unmarked) [Compound P-21, [5-(2,4-difluorophenyl)isoxazol-3-yl]-[4-(1-methylpyrazol-4-yl)-7-phenyl-3,4-dihydro-1H-isoquinolin-2-yl]methanone]",≥ 80%
7,"Cn1cc(C2CN(C(=O)c3cc(-c4c(F)cc(F)cc4F)no3)Cc3ccccc32)cn1 (centres unmarked) [Compound P-129, [4-(1-methylpyrazol-4-yl)-3,4-dihydro-1H-isoquinolin-2-yl]-[3-(2,4,6-trifluorophenyl)isoxazol-5-yl]methanone]",≥ 80%
8,"COc1cccc(-c2cc(C(=O)N3Cc4ccccc4C(c4cnn(C)c4)C3)no2)c1 (centres unmarked) [Compound P-167, [5-(3-methoxyphenyl)isoxazol-3-yl]-[4-(1-methylpyrazol-4-yl)-3,4-dihydro-1H-isoquinolin-2-yl]methanone]",≥ 80%
9,"Cc1nn(C)c(C)c1C1c2ccccc2CN(C(=O)c2cc(-c3ccc(F)cc3F)on2)C1C (centres unmarked) [Compound P-113, [5-(2,4-difluorophenyl)isoxazol-3-yl]-[3-methyl-4-(1,3,5-trimethylpyrazol-4-yl)-3,4-dihydro-1H-isoquinolin-2-yl]methanone]",≥ 80%
10,"Cn1cc(C2CN(C(=O)c3cc(-c4ccc(S(C)(=O)=O)cc4F)on3)Cc3ccccc32)cn1 (centres unmarked) [Compound P-20, [5-(2-fluoro-4-methylsulfonyl-phenyl)isoxazol-3-yl]-[4-(1-methylpyrazol-4-yl)-3,4-dihydro-1H-isoquinolin-2-yl]methanone]",≥ 80%
11,"Cc1c(C2CN(C(=O)c3cc(C4CC4)on3)Cc3ccccc32)cnn1C (centres unmarked) [Compound P-237, (5-cyclopropylisoxazol-3-yl)-[4-(1,5-dimethylpyrazol-4-yl)-3,4-dihydro-1H-isoquinolin-2-yl]methanone]",≥ 80%
12,"COc1ccc2c(c1)C(c1cnn(C)c1)CN(C(=O)c1cc(-c3ccc(F)cc3F)on1)C2 (centres unmarked) [Compound P-66, [5-(2,4-difluorophenyl)isoxazol-3-yl]-[6-methoxy-4-(1-methylpyrazol-4-yl)-3,4-dihydro-1H-isoquinolin-2-yl]methanone]",≥ 80%
13,"Cn1cc(C2CN(C(=O)c3cc(-c4ccc(F)c(F)c4F)on3)Cc3ccccc32)cn1 (centres unmarked) [Compound P-144, [4-(1-methylpyrazol-4-yl)-3,4-dihydro-1H-isoquinolin-2-yl]-[5-(2,3,4-trifluorophenyl)isoxazol-3-yl]methanone]",≥ 80%
14,"COC(=O)C1c2ccccc2C(c2cnn(C)c2)CN1C(=O)c1cc(-c2ccccc2)on1 (centres unmarked) [Compound P-41, methyl 4-(1-methylpyrazol-4-yl)-2-(5-phenylisoxazole-3-carbonyl)-3,4-dihydro-1H-isoquinoline-1-carboxylate]",≥ 80%
15,"Cn1cc(C2CN(C(=O)c3cc(-c4ccccc4)ns3)Cc3ccccc32)cn1 (centres unmarked) [Compound P-161, [4-(1-methylpyrazol-4-yl)-3,4-dihydro-1H-isoquinolin-2-yl]-(3-phenylisothiazol-5-yl)methanone]",≥ 80%
16,"CCCC1c2ccccc2C(c2cnn(C)c2)CN1C(=O)c1cc(-c2ccc(F)cc2F)on1 (centres unmarked) [Compound P-59, [5-(2,4-difluorophenyl)isoxazol-3-yl]-[4-(1-methylpyrazol-4-yl)-1-propyl-3,4-dihydro-1H-isoquinolin-2-yl]methanone]",≥ 80%
17,"CCCc1cc(C(=O)N2Cc3ccccc3C(c3cnn(C)c3)C2)no1 (centres unmarked) [Compound P-84, [4-(1-methylpyrazol-4-yl)-3,4-dihydro-1H-isoquinolin-2-yl]-(5-propylisoxazol-3-yl)methanone]",≥ 80%
18,"Cn1cc(C2CN(C(=O)c3cc(C(C)(C)C)no3)Cc3ccccc32)cn1 (centres unmarked) [Compound P-83, (3-tert-butylisoxazol-5-yl)-[4-(1-methylpyrazol-4-yl)-3,4-dihydro-1H-isoquinolin-2-yl]methanone]",≥ 80%
19,"Cn1cc(C2CN(C(=O)c3cc(-c4ccccc4)on3)Cc3cc(C(F)(F)F)ccc32)cn1 (centres unmarked) [Compound P-103, [4-(1-methylpyrazol-4-yl)-7-(trifluoromethyl)-3,4-dihydro-1H-isoquinolin-2-yl]-(5-phenylisoxazol-3-yl)methanone]",≥ 80%
20,"C[C@H]1c2ccc(O)cc2[C@@H](c2cnn(C)c2)CN1C(=O)c1cc(-c2ccc(F)cc2F)on1 (racemic) [Compound P-245, [5-(2,4-difluorophenyl)isoxazol-3-yl]-[rac-(1S,4S)-6-hydroxy-1-methyl-4-(1-methylpyrazol-4-yl)-3,4-dihydro-1H-isoquinolin-2-yl]methanone]",≥ 80%
21,"C#CCn1cc(C2CN(C(=O)c3cc(-c4ccccc4)on3)Cc3ccccc32)cn1 (centres unmarked) [Compound P-128, (5-phenylisoxazol-3-yl)-[4-(1-prop-2-ynylpyrazol-4-yl)-3,4-dihydro-1H-isoquinolin-2-yl]methanone]",≥ 80%
22,"Cn1cc(C2CN(C(=O)c3coc(-c4ccc(F)cc4)n3)Cc3ccccc32)cn1 (centres unmarked) [Compound P-69, [2-(4-fluorophenyl)oxazol-4-yl]-[4-(1-methylpyrazol-4-yl)-3,4-dihydro-1H-isoquinolin-2-yl]methanone]",≥ 80%
23,"Cn1cc(C2CN(C(=O)c3cc(-c4cccc(F)c4F)on3)Cc3ccccc32)cn1 (centres unmarked) [Compound P-150, [5-(2,3-difluorophenyl)isoxazol-3-yl]-[4-(1-methylpyrazol-4-yl)-3,4-dihydro-1H-isoquinolin-2-yl]methanone]",≥ 80%
